Assay results as given in the supplement of paper PMC10307832.

Assays:
Assay in all cases: relative viability (nuclei count vs DMSO), 5 days (fraction); higher = more cells survive
[1] = system: NCI-H23
In short: (§1)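 Relative viability is defined as nuclei in treated wells over nuclei in vehicle wells. Duplicate plates were run and medians reported. Lung cancer cell lines in 1536-well plates were dosed by pin tool one day after seeding, with one drug or with a fixed anchor-drug dose plus five library-drug doses (not always all listed) in √10 steps, and nuclei were counted after 5 days.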

[2] = system: HARA
In short: as §1

[3] = system: 201T
In short: as §1

[4] = system: NCI-H358
In short: as §1

[5] = system: HCC-827
In short: as §1

[6] = system: SK-MES-1
In short: as §1

[7] = system: NCI-H596
In short: as §1

[8] = system: SW 900
In short: as §1

[9] = system: NCI-H1437
In short: as §1

[10] = system: NCI-H441
In short: as §1

[11] = system: NCI-H1975
In short: as §1

[12] = system: COR-L 105
In short: as §1

[13] = system: COR-L23
In short: as §1

[14] = system: HCC-15
In short: as §1

[15] = system: NCI-H1666
In short: as §1

[16] = system: NCI-H838
In short: as §1

[17] = system: LK-2
In short: as §1

[18] = system: NCI-H650
In short: as §1

[19] = system: A-427
In short: as §1

[20] = system: EKVX
In short: as §1

[21] = system: BEN
In short: as §1

**Q.** Which results are given for `C=C1C(=O)O[C@@H](CCCCCCCC)[C@@H]1C(=O)O` [C-75] + COc1cc2c(Oc3ccc(NC(=O)C4(C(=O)Nc5ccc(F)cc5)CC4)cc3F)ccnc2cc1OCCCN1CCOCC1 [Foretinib] (partner 0.25 µM)?
**A.** relative viability ([1]; first compound 0.08 µM): 0.795; relative viability ([1]; first compound 0.253 µM): 1.08; relative viability ([1]; first compound 0.8 µM): 1.02; relative viability ([1]; first compound 2.53 µM): 0.808; relative viability ([1]; first compound 8 µM): 0.881; relative viability ([2]; first compound 0.08 µM): 0.822; relative viability ([2]; first compound 0.253 µM): 0.93; relative viability ([2]; first compound 0.8 µM): 0.819; relative viability ([2]; first compound 2.53 µM): 0.769; relative viability ([2]; first compound 8 µM): 0.979; relative viability ([3]; first compound 0.08 µM): 1.08; relative viability ([3]; first compound 0.253 µM): 1.24; relative viability ([3]; first compound 0.8 µM): 1.08; relative viability ([3]; first compound 2.53 µM): 0.64; relative viability ([3]; first compound 8 µM): 1.03; relative viability ([4]; first compound 0.08 µM): 0.748; relative viability ([4]; first compound 0.253 µM): 0.623; relative viability ([4]; first compound 0.8 µM): 0.565; relative viability ([4]; first compound 2.53 µM): 0.595; relative viability ([4]; first compound 8 µM): 0.511; relative viability ([5]; first compound 0.08 µM): 1.02; relative viability ([5]; first compound 0.253 µM): 1.05; relative viability ([5]; first compound 0.8 µM): 1.04; relative viability ([5]; first compound 2.53 µM): 0.965; relative viability ([5]; first compound 8 µM): 0.945; relative viability ([6]; first compound 0.08 µM): 1.06; relative viability ([6]; first compound 0.253 µM): 0.773; relative viability ([6]; first compound 0.8 µM): 0.978; relative viability ([6]; first compound 8 µM): 0.925; relative viability ([7]; first compound 0.08 µM): 0.878; relative viability ([7]; first compound 0.253 µM): 1.01; relative viability ([7]; first compound 0.8 µM): 0.871; relative viability ([7]; first compound 2.53 µM): 1; relative viability ([7]; first compound 8 µM): 0.869; relative viability ([8]; first compound 0.08 µM): 0.913; relative viability ([8]; first compound 0.253 µM): 1.07; relative viability ([8]; first compound 0.8 µM): 0.842; relative viability ([8]; first compound 2.53 µM): 0.945; relative viability ([8]; first compound 8 µM): 0.804; relative viability ([9]; first compound 0.08 µM): 1.27; relative viability ([9]; first compound 0.253 µM): 1.45; relative viability ([9]; first compound 0.8 µM): 1.28; relative viability ([9]; first compound 2.53 µM): 1.13; relative viability ([9]; first compound 8 µM): 1.23; relative viability ([10]; first compound 0.08 µM): 1.01; relative viability ([10]; first compound 0.253 µM): 0.958; relative viability ([10]; first compound 0.8 µM): 1.03; relative viability ([10]; first compound 2.53 µM): 0.789; relative viability ([10]; first compound 8 µM): 1.15; relative viability ([11]; first compound 0.08 µM): 0.917; relative viability ([11]; first compound 0.253 µM): 0.834; relative viability ([11]; first compound 0.8 µM): 0.974; relative viability ([11]; first compound 2.53 µM): 0.785; relative viability ([11]; first compound 8 µM): 0.878; relative viability ([12]; first compound 0.08 µM): 0.934; relative viability ([12]; first compound 0.253 µM): 1.17; relative viability ([12]; first compound 0.8 µM): 1.12; relative viability ([12]; first compound 2.53 µM): 0.828; relative viability ([12]; first compound 8 µM): 1; relative viability ([13]; first compound 0.08 µM): 0.903; relative viability ([13]; first compound 0.253 µM): 1; relative viability ([13]; first compound 0.8 µM): 0.856; relative viability ([13]; first compound 2.53 µM): 0.9; relative viability ([13]; first compound 8 µM): 0.965; relative viability ([14]; first compound 0.08 µM): 0.949; relative viability ([14]; first compound 0.253 µM): 1.01; relative viability ([14]; first compound 0.8 µM): 0.956; relative viability ([14]; first compound 2.53 µM): 1; relative viability ([14]; first compound 8 µM): 0.931; relative viability ([15]; first compound 0.08 µM): 0.991; relative viability ([15]; first compound 0.253 µM): 1.01; relative viability ([15]; first compound 0.8 µM): 0.969; relative viability ([15]; first compound 2.53 µM): 0.732; relative viability ([15]; first compound 8 µM): 0.777; relative viability ([16]; first compound 0.08 µM): 1.06; relative viability ([16]; first compound 0.8 µM): 0.948; relative viability ([16]; first compound 2.53 µM): 0.861; relative viability ([16]; first compound 8 µM): 0.964; relative viability ([17]; first compound 0.08 µM): 0.944; relative viability ([17]; first compound 0.253 µM): 1.23; relative viability ([17]; first compound 0.8 µM): 1.15; relative viability ([17]; first compound 2.53 µM): 1.35; relative viability ([17]; first compound 8 µM): 1.06; relative viability ([18]; first compound 0.08 µM): 1; relative viability ([18]; first compound 0.253 µM): 0.818; relative viability ([18]; first compound 0.8 µM): 1.04; relative viability ([18]; first compound 2.53 µM): 0.995; relative viability ([18]; first compound 8 µM): 0.993; relative viability ([19]; first compound 0.08 µM): 0.898; relative viability ([19]; first compound 0.253 µM): 1.18; relative viability ([19]; first compound 0.8 µM): 0.969; relative viability ([19]; first compound 2.53 µM): 1.03; relative viability ([19]; first compound 8 µM): 0.992; relative viability ([20]; first compound 0.08 µM): 0.644; relative viability ([20]; first compound 0.253 µM): 0.925; relative viability ([20]; first compound 0.8 µM): 0.782; relative viability ([20]; first compound 8 µM): 1.06; relative viability ([21]; first compound 0.08 µM): 0.712; relative viability ([21]; first compound 0.253 µM): 0.671; relative viability ([21]; first compound 0.8 µM): 0.547; relative viability ([21]; first compound 8 µM): 0.478
